From the supplement of paper PMC10883282

What was measured:
Test in all cases: relative viability vs DMSO control (72 h) (fraction); higher = more viable cells
[1] = tested on: A204
How it was run: (§1)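 Percent growth from ATPLite readings, averaged over up to triplicate wells, was used as relative viability. Sarcoma cell lines were seeded into 384-well plates for 80–90% confluence, dosed after 24 h, and kept 72 h at 37 °C, 5% CO2. Data were rescaled to a range where 1 is full and 0 is none.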

[2] = tested on: G401
How it was run: as §1

[3] = tested on: HS729
How it was run: as §1

[4] = tested on: HT1080
How it was run: as §1

[5] = tested on: KHOS-NP
How it was run: as §1

[6] = tested on: MES-SA
How it was run: as §1

CCN1C(=O)N(c2c(F)c(OC)cc(OC)c2F)Cc2cnc3[nH]c(CN4CCOCC4)cc3c21 [Pemigatinib]
relative viability
Conditions	[1]	[2]	[3]	[4]	[5]	[6]
0.00017 µM	1.04	0.978	1	1.05	1.09	0.912
0.00051 µM	1.02	0.982	0.95	1.09	1.06	0.9387
0.00152 µM	0.98	0.93	0.912	1.06	1.088	0.937
0.00457 µM	0.991	0.8789	0.92	1.06	1.088	0.914
0.01372 µM	0.843	0.746	0.843	1.036	1.055	0.91
0.04115 µM	0.709	0.7	0.751	1.1	1.065	0.826
0.1235 µM	0.599	0.614	0.644	1.09	1.07	0.732
0.3704 µM	0.565	0.585	0.622	1.07	1.05	0.7701
1.111 µM	0.516	0.518	0.544	1.104	1.06	0.641
3.333 µM	0.379	0.379	0.484	0.875	1.08	0.397
10 µM	0.333	0.349	0.444	0.807	1.05	0.376
